25 molecules from patent US11590116B2 (THERAVANCE BIOPHARMA R&D IP, LLC, priority 2019, dated 2023) can be followed below.

Like-named read-outs stand apart in the source and are kept apart here.

In experiment [1] the target is T1, recombinant human ALK5 (TGF-βR1) protein (Homo sapiens, UniProt P36897).
T1 construct: purchased Life Technologies PR9075A
T1 sequence (P36897 34-503): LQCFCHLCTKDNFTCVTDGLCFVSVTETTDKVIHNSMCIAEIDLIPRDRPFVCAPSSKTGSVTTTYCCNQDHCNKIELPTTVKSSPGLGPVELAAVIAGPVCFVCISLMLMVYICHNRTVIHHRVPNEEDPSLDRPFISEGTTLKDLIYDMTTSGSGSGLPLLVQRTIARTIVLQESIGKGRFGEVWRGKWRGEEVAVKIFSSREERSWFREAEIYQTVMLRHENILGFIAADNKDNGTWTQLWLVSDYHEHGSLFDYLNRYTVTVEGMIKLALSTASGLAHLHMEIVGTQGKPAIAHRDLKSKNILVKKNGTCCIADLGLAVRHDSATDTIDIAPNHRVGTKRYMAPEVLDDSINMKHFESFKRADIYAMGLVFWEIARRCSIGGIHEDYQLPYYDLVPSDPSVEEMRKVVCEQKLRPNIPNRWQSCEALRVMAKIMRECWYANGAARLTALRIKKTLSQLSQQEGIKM
As to the kind of experiment: Biochemical ALK5 (TGF-βR1) assay to measure pKi (LANCE Ultra ULight kinase assay). The conditions noted are these: apparent pKi from pIC50 by Cheng-Prusoff. The method in brief: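 Compounds (10 μM to 25 pM) preincubated 60 minutes at room temperature with enzyme, then reaction run 60 minutes at 37° C with ATP added as 125 μM (5× final). Stopped with EDTA plus Eu-anti-phospho-Topoisomerase 2-alpha (Thr1342) antibody, TR-FRET read at 665 nm; pIC50 converted to pKi via Cheng-Prusoff.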
Background: TR-FRET usually uses a lanthanide donor and a delayed reading to cut background.

The test system of experiment [2] is TGF-β-stimulated SMAD3 phosphorylation in BEAS-2B cells. As to the kind of experiment: Cellular ALK5 potency assay, inhibition of TGF-β stimulated pSMAD3 formation in BEAS-2B cells. Format: cell-based. The conditions noted are these: Homo sapiens, read-out: BEAS2B pIC50 (converted). In a few lines:
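Potency is reported as pIC50, derived from concentration-dependent reduction of pSMAD3 AlphaLISA signal against TGF-β-stimulated cells without compound. BEAS-2B cells received compound for 1 h before a 30-min stimulation with 10 ng/mL TGF-β.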

The mark [3] stands for this setting: inhibition of TGF-β stimulated pSMAD3 formation, BEAS-2B cells.

In the case of `Cc1nc(-c2n[nH]cc2-c2ccc3ncc(-c4nc(C(F)(F)F)n5c4CNCC5)cc3n2)ccc1F` [Compound 51, 2-[3-(5-fluoro-6-methyl-2-pyridyl)-1H-pyrazol-4-yl]-7-[3-(trifluoromethyl)-5,6,7,8-tetrahydroimidazo[1,5-a]pyrazin-1-yl]-1,5-naphthyridine], in experiment [1] (read-out: ALK5 pKi (converted)), the Ki was 0.0398 to 0.316 nM. The IC50 in experiment [2] (setting [3]) was 25.1 to 158 nM.

Consider `Cc1cccc(-c2nnn(Cc3ccccc3)c2-c2ccc3ncc(NCCN4CCN(C(C)C)CC4)cc3n2)n1` [Compound 373, 6-(1-benzyl-4-(6-methylpyridin-2-yl)-1H-1,2,3-triazol-5-yl)-N-(2-(4-isopropylpiperazin-1-yl)ethyl)-1,5-naphthyridin-3-amine], for which the Ki in experiment [1] (read-out: ALK5 pKi (converted)) was 0.0398 to 0.316 nM. In addition, the IC50 in experiment [2] (setting [3]) is 200 to 1260 nM.

For the molecule `Cc1cccc(-c2nc3ccccn3c2-c2ccc3ncc(N4CCCNCC4)cc3c2)n1` [Compound 363, 3-(1,4-diazepan-1-yl)-6-[2-(6-methyl-2-pyridyl)imidazo[1,2-a]pyridin-3-yl]quinoline], the Ki in experiment [1] (read-out: ALK5 pKi (converted)) is 0.0398 to 0.316 nM. Moreover, the IC50 in experiment [2] (setting [3]) was 25.1 to 158 nM.

Take `Cc1nc(-c2n[nH]cc2-c2ccc3ncc(N4CC[C@H](N(C)C)C4)cc3n2)ccc1F` [Compound 135, (3S)-1-[6-[3-(5-fluoro-6-methyl-2-pyridyl)-1H-pyrazol-4-yl]-1,5-naphthyridin-3-yl]-N,N-dimethyl-pyrrolidin-3-amine]: in experiment [1] (read-out: ALK5 pKi (converted)), the Ki was less than 0.0316 nM. Moreover, the IC50 in experiment [2] (setting [3]) is 25.1 to 158 nM.

Take `Cc1cccc(-c2[nH]ncc2-c2ccc3ncc(C(=O)OC[C@@H]4CCCCN4)cc3c2)n1` [Compound 1205, [(2S)-2-piperidyl]methyl 6-[5-(6-methyl-2-pyridyl)-1H-pyrazol-4-yl]quinoline-3-carboxylate]: the Ki in experiment [1] (read-out: ALK5 pKi (converted)) was 0.0398 to 0.316 nM. Further, the IC50 in experiment [2] (setting [3]) is less than 20 nM.

Turning to `Cc1cccc(-c2[nH]cnc2-c2ccc3ncc(C4=CCC(NC(=O)CC5CNC5)CC4)cc3c2)n1` (racemic) [Compound 793, 2-(azetidin-3-yl)-N-[rac-(1R)-4-[6-[5-(6-methyl-2-pyridyl)-1H-imidazol-4-yl]-3-quinolyl]cyclohex-3-en-1-yl]acetamide], the Ki in experiment [1] (read-out: ALK5 pKi (converted)) was 0.0398 to 0.316 nM. Besides, the IC50 in experiment [2] (setting [3]) was 200 to 1260 nM.

With `Cc1cccc(-c2n[nH]cc2-c2ccc3ncc(-c4cccc(F)c4)cc3n2)n1` [Compound 58, 7-(3-fluorophenyl)-2-[3-(6-methyl-2-pyridyl)-1H-pyrazol-4-yl]-1,5-naphthyridine], the Ki in experiment [1] (read-out: ALK5 pKi (converted)) is 0.0398 to 0.316 nM. The IC50 in experiment [2] (setting [3]) was 25.1 to 158 nM.

Consider `Cc1cccc(-c2[nH]cnc2-c2ccc3ncc(-c4ncc(CN5CCNCC5)s4)cc3c2)n1` [Compound 1055, 2-[6-[5-(6-methyl-2-pyridyl)-1H-imidazol-4-yl]-3-quinolyl]-5-(piperazin-1-ylmethyl)thiazole], for which the Ki in experiment [1] (read-out: ALK5 pKi (converted)) is 0.0398 to 0.316 nM. Besides, in experiment [2] (setting [3]), the IC50 was less than 20 nM.

With `Cc1cccc(-c2[nH]ncc2-c2ccc3ncc(C(=O)NC4CCNCC4)cc3n2)n1` [Compound 337, 6-[5-(6-methyl-2-pyridyl)-1H-pyrazol-4-yl]-N-(4-piperidyl)-1,5-naphthyridine-3-carboxamide], the Ki in experiment [1] (read-out: ALK5 pKi (converted)) is 0.0398 to 0.316 nM. Also, the IC50 in experiment [2] (setting [3]) is 200 to 1260 nM.

`CC(=O)Oc1cnc2ccc(-c3cn[nH]c3-c3cccc(C)n3)cc2c1` [Compound 731, [6-[5-(6-methyl-2-pyridyl)-1H-pyrazol-4-yl]-3-quinolyl]acetate]: the Ki in experiment [1] (read-out: ALK5 pKi (converted)) is 0.0398 to 0.316 nM. Also, in experiment [2] (setting [3]), the IC50 was less than 20 nM.

For the molecule `Cc1nc(-c2n[nH]cc2-c2ccc3ncc(-c4cc5n(n4)CCN5)cc3n2)ccc1F` [Compound 574, 7-(2,3-dihydro-1H-imidazo[1,2-b]pyrazol-6-yl)-2-[3-(5-fluoro-6-methyl-2-pyridyl)-1H-pyrazol-4-yl]-1,5-naphthyridine], the Ki in experiment [1] (read-out: ALK5 pKi (converted)) was less than 0.0316 nM. The IC50 in experiment [2] (setting [3]) is less than 20 nM.

As to `Cc1cccc(-c2nnn(Cc3ccccc3)c2-c2ccc3ncc(-c4cnn(C5CCCNC5)c4)cc3c2)n1` (centres unmarked) [Compound 27, 6-[3-benzyl-5-(6-methyl-2-pyridyl)triazol-4-yl]-3-[1-(3-piperidyl)pyrazol-4-yl]quinoline], the Ki in experiment [1] (read-out: ALK5 pKi (converted)) is 0.0398 to 0.316 nM. Besides, the IC50 in experiment [2] (setting [3]) was 25.1 to 158 nM.

On to `CC(=O)NC1CC=C(c2cnc3ccc(-c4nc[nH]c4-c4cccc(C)n4)cc3c2)CC1` (centres unmarked) [Compound 26, N-[4-[6-[5-(6-methyl-2-pyridyl)-1H-imidazol-4-yl]-3-quinolyl]cyclohex-3-en-1-yl]acetamide], for which the Ki in experiment [1] (read-out: ALK5 pKi (converted)) is less than 0.0316 nM. The IC50 in experiment [2] (setting [3]) was less than 20 nM.

For the molecule `Cc1nc(-c2n[nH]cc2-c2ccc3ncc(N4CCC(N5CCN(C)CC5)CC4)cc3n2)ccc1F` [Compound 539, 2-[3-(5-fluoro-6-methyl-2-pyridyl)-1H-pyrazol-4-yl]-7-[4-(4-methylpiperazin-1-yl)-1-piperidyl]-1,5-naphthyridine], in experiment [1] (read-out: ALK5 pKi (converted)), the Ki was less than 0.0316 nM. Moreover, the IC50 in experiment [2] (setting [3]) was 25.1 to 158 nM.

As to `Cc1cccc(-c2n[nH]cc2-c2ccc3ncc(-c4cn(Cc5ccccc5)nn4)cc3n2)n1` [Compound 48, 7-(l-benzyltriazol-4-yl)-2-[3-(6-methyl-2-pyridyl)-1H-pyrazol-4-yl]-1,5-naphthyridine], in experiment [1] (read-out: ALK5 pKi (converted)), the Ki is 0.0398 to 0.316 nM. For the same molecule, the IC50 in experiment [2] (setting [3]) is less than 20 nM.

On to `Cc1cccc(-c2nc3ccccn3c2-c2ccc3ncc(N4CCC(N(C)C)C4)cc3n2)n1` (racemic) [Compound 285, rac-(3S)-N,N-dimethyl-1-[6-[2-(6-methyl-2-pyridyl)imidazo[1,2-a]pyridin-3-yl]-1,5-naphthyridin-3-yl]pyrrolidin-3-amine], for which, in experiment [1] (read-out: ALK5 pKi (converted)), the Ki is 0.0398 to 0.316 nM. Further, the IC50 in experiment [2] (setting [3]) is 25.1 to 158 nM.

As for `Cc1nc(-c2n[nH]cc2-c2ccc3ncc(-c4cnn5c4CNCC5)cc3n2)ccc1F` [Compound 185, 2-[3-(5-fluoro-6-methyl-2-pyridyl)-1H-pyrazol-4-yl]-7-(4,5,6,7-tetrahydropyrazolo[1,5-a]pyrazin-3-yl)-1,5-naphthyridine], the Ki in experiment [1] (read-out: ALK5 pKi (converted)) is 0.0398 to 0.316 nM. For the same molecule, the IC50 in experiment [2] (setting [3]) was less than 20 nM.

For `CNCCn1cc(-c2cnc3ccc(-c4c(-c5ccc(F)c(C)n5)nc5ccccn45)cc3c2)cn1` [Compound 79, 2-[4-[6-[2-(5-fluoro-6-methyl-2-pyridyl)imidazo[1,2-a]pyridin-3-yl]-3-quinolyl]pyrazol-1-yl]-N-methyl-ethanamine], the Ki in experiment [1] (read-out: ALK5 pKi (converted)) is 0.0398 to 0.316 nM. Moreover, in experiment [2] (setting [3]), the IC50 is 25.1 to 158 nM.

`Cc1cccc(-c2nc3sccn3c2-c2ccc3ncc(Br)cc3n2)n1` [Compound 511, 5-(7-Bromo-1,5-naphthyridin-2-yl)-6-(6-methylpyridin-2-yl)imidazo[2,1-b]thiazole]: in experiment [1] (read-out: ALK5 pKi (converted)), the Ki is 0.398 to 3.16 nM. The IC50 in experiment [2] (setting [3]) was 25.1 to 158 nM.

`Cc1cccc(-c2n[nH]cc2-c2ccc3ncc(N4CCCN(C)CC4)cc3n2)n1` [Compound 144, 7-(4-methyl-1,4-diazepan-1-yl)-2-[3-(6-methyl-2-pyridyl)-1H-pyrazol-4-yl]-1,5-naphthyridine]: the Ki in experiment [1] (read-out: ALK5 pKi (converted)) is 0.0398 to 0.316 nM. In experiment [2] (setting [3]), the IC50 was 25.1 to 158 nM.

`Cc1cccc(-c2nc[nH]c2-c2ccc3ncc(-c4cnn([C@@H]5CCCC[C@H]5N)c4)cc3c2)n1` [Compound 448, (1R,2R)-2-[4-[6-[4-(6-methyl-2-pyridyl)-1H-imidazol-5-yl]-3-quinolyl]pyrazol-1-yl]cyclohexanamine]: in experiment [1] (read-out: ALK5 pKi (converted)), the Ki was less than 0.0316 nM. Moreover, in experiment [2] (setting [3]), the IC50 is 25.1 to 158 nM.

For the molecule `Cc1cccc(-c2n[nH]cc2-c2ccc3nccc(CN4CCC(N5CCOCC5)CC4)c3n2)n1` [Compound 849, 4-[1-[[6-[3-(6-methyl-2-pyridyl)-1H-pyrazol-4-yl]-1,5-naphthyridin-4-yl]methyl]-4-piperidyl]morpholine], the Ki in experiment [1] (read-out: ALK5 pKi (converted)) is 0.398 to 3.16 nM. In experiment [2] (setting [3]), the IC50 was 200 to 1260 nM.

On to `Cc1cccc(-c2[nH]cnc2-c2ccc3ncc(C(=O)OCC45CCC(CC4)N5)cc3c2)n1` [Compound 780, 7-azabicyclo[2.2.1]heptan-1-ylmethyl 6-[5-(6-methyl-2-pyridyl)-1H-imidazol-4-yl]quinoline-3-carboxylate], for which the Ki in experiment [1] (read-out: ALK5 pKi (converted)) was 0.398 to 3.16 nM. Also, the IC50 in experiment [2] (setting [3]) is 25.1 to 158 nM.

Regarding `Cc1cccc(-c2n[nH]cc2-c2ccc3ncc(C4C[C@H]5CC[C@@H](C4)N5)cc3n2)n1` (mixture of isomers) [Compound 350, 2-[3-(6-methyl-2-pyridyl)-1H-pyrazol-4-yl]-7-[rac-(1S,5R)-8-azabicyclo[3.2.1]octan-3-yl]-1,5-naphthyridine], in experiment [1] (ALK5 pKi), the Ki fell in the range of 3.98 to 31.6 nM. Besides, the IC50 in experiment [2] (BEAS-2B) was 200 to 1260 nM.

As to `Cc1cccc(-c2c(-c3ccc4ncc(N5CCC(N6CCN(C)CC6)CC5)cc4c3)nnn2Cc2ccccc2)n1` [Compound 578, 6-[1-benzyl-5-(6-methyl-2-pyridyl)triazol-4-yl]-3-[4-(4-methylpiperazin-1-yl)-1-piperidyl]quinoline], the Ki in experiment [1] (read-out: ALK5 pKi (converted)) is 3.98 to 31.6 nM. Also, the IC50 in experiment [2] (setting [3]) is 1580 to 10000 nM.
